Measured values published in patent publication US20260356819A1, “OXOISOINDOLINYL-SUBSTITUTED […] DERIVATIVE AND USE THEREOF” (GLUETACS THERAPEUTICS (SHANGHAI) CO., LTD., priority 2023, published 2026).

Key:
[1] = molecular target: T1, GSPT1 (Homo sapiens, UniProt P15170+Q96SW2); assay: Western blot degradation of GSPT1 in hPBMCs (24 h); type: cell-based; conditions: compounds at 50 nM and 500 nM
T1 construct: The supernatant was aspirated as the extracted total cell protein; endogenous in cells; host or cells: human peripheral blood mononuclear cells (hPBMCs)
How it was run: (§1)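 Read-out is Western blot band grayscale, divided by internal control band and normalised to give percent target protein remaining; degradation rate is 1 minus that value. Cells were human PBMCs exposed to compound at 50 nM and 500 nM for 24 hours.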

[2] = molecular target: T2, IKZF3 (Homo sapiens, UniProt Q96SW2+Q9UKT9); assay: Western blot degradation of IKZF3 in hPBMCs (24 h); type: cell-based; conditions: compounds at 50 nM and 500 nM
T2 construct: The supernatant was aspirated as the extracted total cell protein; endogenous in cells; host or cells: human peripheral blood mononuclear cells (hPBMCs)
T2 sequence (Q9UKT9 whole entry): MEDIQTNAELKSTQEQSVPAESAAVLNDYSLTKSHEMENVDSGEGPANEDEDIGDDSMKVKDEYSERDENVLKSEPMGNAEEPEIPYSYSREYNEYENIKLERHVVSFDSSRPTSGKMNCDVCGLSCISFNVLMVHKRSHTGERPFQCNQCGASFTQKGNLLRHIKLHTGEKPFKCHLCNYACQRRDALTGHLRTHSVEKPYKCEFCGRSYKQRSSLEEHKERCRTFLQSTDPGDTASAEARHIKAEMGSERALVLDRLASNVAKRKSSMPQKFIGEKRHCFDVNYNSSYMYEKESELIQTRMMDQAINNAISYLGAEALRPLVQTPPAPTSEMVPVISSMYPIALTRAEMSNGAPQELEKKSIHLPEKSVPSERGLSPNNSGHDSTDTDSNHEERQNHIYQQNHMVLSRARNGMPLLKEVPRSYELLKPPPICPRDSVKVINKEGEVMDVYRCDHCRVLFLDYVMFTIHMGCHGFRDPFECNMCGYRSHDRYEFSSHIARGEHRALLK
T2 sequence (Q96SW2 whole entry): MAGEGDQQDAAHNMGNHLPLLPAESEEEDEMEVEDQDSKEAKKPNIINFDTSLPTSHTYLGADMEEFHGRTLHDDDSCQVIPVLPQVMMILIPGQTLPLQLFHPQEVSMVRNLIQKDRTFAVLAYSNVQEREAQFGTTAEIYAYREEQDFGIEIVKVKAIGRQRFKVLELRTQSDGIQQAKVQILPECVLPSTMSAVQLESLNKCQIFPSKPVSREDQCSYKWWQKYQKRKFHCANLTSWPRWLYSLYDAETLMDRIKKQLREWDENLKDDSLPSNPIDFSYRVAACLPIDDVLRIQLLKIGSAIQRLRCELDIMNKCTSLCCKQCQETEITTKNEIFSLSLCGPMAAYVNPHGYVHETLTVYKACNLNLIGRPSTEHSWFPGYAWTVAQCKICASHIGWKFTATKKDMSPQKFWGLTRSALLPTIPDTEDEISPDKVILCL
T2 sequence (Q16531 whole entry partner): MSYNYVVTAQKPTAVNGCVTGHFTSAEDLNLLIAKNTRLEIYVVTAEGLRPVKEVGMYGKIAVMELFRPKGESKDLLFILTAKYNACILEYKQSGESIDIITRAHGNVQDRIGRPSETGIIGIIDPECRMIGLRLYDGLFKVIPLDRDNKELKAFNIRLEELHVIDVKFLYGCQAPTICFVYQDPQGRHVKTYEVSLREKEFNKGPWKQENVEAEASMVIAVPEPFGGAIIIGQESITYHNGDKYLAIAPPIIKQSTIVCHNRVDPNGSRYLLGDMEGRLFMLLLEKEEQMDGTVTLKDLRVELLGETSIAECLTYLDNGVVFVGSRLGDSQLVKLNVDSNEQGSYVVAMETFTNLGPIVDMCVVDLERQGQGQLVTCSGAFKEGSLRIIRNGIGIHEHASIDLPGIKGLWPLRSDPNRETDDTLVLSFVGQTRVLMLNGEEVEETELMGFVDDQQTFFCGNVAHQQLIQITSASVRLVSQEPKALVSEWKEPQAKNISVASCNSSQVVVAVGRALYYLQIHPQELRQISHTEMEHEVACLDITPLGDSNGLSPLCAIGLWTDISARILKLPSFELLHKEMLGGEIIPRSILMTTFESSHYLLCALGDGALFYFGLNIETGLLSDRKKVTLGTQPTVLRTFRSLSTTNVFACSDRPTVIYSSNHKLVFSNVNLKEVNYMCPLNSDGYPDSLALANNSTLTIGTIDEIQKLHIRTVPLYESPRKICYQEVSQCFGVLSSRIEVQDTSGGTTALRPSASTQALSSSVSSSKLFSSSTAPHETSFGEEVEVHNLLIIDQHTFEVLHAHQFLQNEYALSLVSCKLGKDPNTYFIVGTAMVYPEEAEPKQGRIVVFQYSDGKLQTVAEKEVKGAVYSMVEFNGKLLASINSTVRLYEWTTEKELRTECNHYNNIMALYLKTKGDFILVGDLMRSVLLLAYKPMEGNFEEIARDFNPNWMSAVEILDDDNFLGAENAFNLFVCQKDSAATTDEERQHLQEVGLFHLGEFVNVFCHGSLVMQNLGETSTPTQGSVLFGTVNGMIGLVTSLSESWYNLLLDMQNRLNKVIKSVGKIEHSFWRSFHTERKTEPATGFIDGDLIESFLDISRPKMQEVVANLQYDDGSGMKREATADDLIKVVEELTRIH
How it was run: as §1

[3] = molecular target: T3, CK1α (Homo sapiens, UniProt P48729+Q96SW2); assay: Western blot degradation of CK1α in hPBMCs (24 h); type: cell-based; conditions: compounds at 50 nM and 500 nM
T3 construct: The supernatant was aspirated as the extracted total cell protein; endogenous in cells; host or cells: human peripheral blood mononuclear cells (hPBMCs)
T3 sequence (P48729 whole entry): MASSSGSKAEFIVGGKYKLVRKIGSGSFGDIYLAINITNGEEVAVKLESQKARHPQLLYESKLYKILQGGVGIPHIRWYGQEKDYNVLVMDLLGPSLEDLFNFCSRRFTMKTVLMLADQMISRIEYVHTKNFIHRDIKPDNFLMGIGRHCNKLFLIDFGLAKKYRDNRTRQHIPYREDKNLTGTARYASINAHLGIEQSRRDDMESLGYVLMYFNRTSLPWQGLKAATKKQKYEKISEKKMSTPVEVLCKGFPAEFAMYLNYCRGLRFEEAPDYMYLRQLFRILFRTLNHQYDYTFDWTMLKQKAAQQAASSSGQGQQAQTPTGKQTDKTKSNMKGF
T3 sequence (Q96SW2 whole entry): as the sequence (Q96SW2 whole entry) above
T3 sequence (Q16531 whole entry partner): as the sequence (Q16531 whole entry partner) above
How it was run: as §1

[4] = tested on: MM.1S cells; assay: Inhibition of proliferation of multiple myeloma cells MM.1S (cell viability assay, 96 h); type: cell-based, human; conditions: read-out: inhibitory activity (IC50) against tumor cells proliferation, MM.1S
Procedure: The tumor cells used herein were cultured in a cell culture medium listed in table 2 at 37 °C in an incubator with 5% CO2. Prior to experimentation, all cell lines used were correctly identified by STR profiling, and tested negative for Mycoplasma contamination using a Mycoplasma detection kit through routine screenings.
The IC50 values of the compounds of the present disclosure (including the compounds in Table 1, and Examples 1-498) were determined using the CellTiter-Meiluncell Luminescent Cell Viability Assay Kit from Dalian Meilun Biotech Co., Ltd. The detailed procedure is as follows: Tumor cells were seeded in 96-well cell culture plates at the densities specified in Table 3. On the following day, the test compounds of the present disclosure were subjected to serial dilution. […] Subsequently, 0.5 μL of the test compound dilution was transferred into the 96-well plate containing the cells, with each well containing 100 μL of cell culture medium. […] Into the 96-well plate, the diluted test compounds and corresponding detection reagents were added, resulting in final test compound concentrations of 500 nM and 10 nM, respectively. The experimental procedure is described below using the diluted 2 μM test compound as an example.
0.5 μL of the aforementioned diluted compound of the present disclosure (including the compounds in Table 1, and Examples 1-498) was added to the seeded cells in 100 μL of medium, yielding a final test compound concentration of 10 nM. After the cells were treated with the compounds of the present disclosure for a specified period, the cell viability assay reagent was added to the culture medium according to the kit's instructions to determine cell viability. […] All controls were treated using the same procedure as the compounds of the present disclosure. The growth inhibition curves for the compounds of the present disclosure were plotted using Prism GraphPad software, and the IC50 values were calculated therefrom.

[5] = molecular target: T4, IKZF2 (Homo sapiens, UniProt Q96SW2+Q9UKS7); assay: Western blot degradation of IKZF2 in hPBMCs (24 h); type: cell-based; conditions: compounds at 50 nM and 500 nM
T4 construct: The supernatant was aspirated as the extracted total cell protein; endogenous in cells; host or cells: human peripheral blood mononuclear cells (hPBMCs)
T4 sequence (Q9UKS7 whole entry): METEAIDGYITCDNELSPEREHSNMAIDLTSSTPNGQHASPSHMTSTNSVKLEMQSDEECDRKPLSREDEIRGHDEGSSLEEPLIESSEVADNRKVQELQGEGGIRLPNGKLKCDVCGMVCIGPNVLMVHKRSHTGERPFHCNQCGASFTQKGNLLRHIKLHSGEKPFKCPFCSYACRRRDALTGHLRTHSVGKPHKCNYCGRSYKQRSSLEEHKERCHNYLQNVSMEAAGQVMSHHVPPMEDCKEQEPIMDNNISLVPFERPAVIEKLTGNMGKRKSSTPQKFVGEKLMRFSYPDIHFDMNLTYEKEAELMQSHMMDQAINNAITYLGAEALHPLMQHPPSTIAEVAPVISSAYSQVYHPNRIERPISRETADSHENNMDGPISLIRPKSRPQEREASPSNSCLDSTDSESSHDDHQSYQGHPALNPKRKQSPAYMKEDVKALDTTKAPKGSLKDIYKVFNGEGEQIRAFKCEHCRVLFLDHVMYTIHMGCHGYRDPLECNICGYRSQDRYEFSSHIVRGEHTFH
T4 sequence (Q96SW2 whole entry): as the sequence (Q96SW2 whole entry) above
T4 sequence (Q16531 whole entry partner): as the sequence (Q16531 whole entry partner) above
How it was run: as §1

[6] = molecular target: T5, IKZF1 (Homo sapiens, UniProt Q13422+Q96SW2); assay: Western blot degradation of IKZF1 in hPBMCs (24 h); type: cell-based; conditions: compounds at 50 nM and 500 nM
T5 construct: The supernatant was aspirated as the extracted total cell protein; endogenous in cells; host or cells: human peripheral blood mononuclear cells (hPBMCs)
T5 sequence (Q13422 whole entry): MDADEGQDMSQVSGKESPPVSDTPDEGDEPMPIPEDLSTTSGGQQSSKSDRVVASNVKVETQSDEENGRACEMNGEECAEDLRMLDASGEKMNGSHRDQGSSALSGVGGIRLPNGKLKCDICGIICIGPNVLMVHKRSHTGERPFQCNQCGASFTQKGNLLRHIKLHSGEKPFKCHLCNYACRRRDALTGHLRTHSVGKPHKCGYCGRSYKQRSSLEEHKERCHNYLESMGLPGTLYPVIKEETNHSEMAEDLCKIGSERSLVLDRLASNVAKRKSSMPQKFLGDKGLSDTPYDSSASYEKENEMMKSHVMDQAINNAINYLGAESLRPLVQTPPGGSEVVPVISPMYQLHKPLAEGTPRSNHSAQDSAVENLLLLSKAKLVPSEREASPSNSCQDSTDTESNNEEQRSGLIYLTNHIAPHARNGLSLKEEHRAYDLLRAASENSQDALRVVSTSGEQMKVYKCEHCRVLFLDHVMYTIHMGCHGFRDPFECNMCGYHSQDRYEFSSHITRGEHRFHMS
T5 sequence (Q96SW2 whole entry): as the sequence (Q96SW2 whole entry) above
T5 sequence (Q16531 whole entry partner): as the sequence (Q16531 whole entry partner) above
How it was run: as §1

[7] = molecular target: T6, WEE1 (Homo sapiens, UniProt P30291+Q96SW2); assay: Western blot degradation of WEE1 in hPBMCs (24 h); type: cell-based; conditions: compounds at 50 nM and 500 nM
T6 construct: The supernatant was aspirated as the extracted total cell protein; endogenous in cells; host or cells: human peripheral blood mononuclear cells (hPBMCs)
T6 sequence (P30291 whole entry): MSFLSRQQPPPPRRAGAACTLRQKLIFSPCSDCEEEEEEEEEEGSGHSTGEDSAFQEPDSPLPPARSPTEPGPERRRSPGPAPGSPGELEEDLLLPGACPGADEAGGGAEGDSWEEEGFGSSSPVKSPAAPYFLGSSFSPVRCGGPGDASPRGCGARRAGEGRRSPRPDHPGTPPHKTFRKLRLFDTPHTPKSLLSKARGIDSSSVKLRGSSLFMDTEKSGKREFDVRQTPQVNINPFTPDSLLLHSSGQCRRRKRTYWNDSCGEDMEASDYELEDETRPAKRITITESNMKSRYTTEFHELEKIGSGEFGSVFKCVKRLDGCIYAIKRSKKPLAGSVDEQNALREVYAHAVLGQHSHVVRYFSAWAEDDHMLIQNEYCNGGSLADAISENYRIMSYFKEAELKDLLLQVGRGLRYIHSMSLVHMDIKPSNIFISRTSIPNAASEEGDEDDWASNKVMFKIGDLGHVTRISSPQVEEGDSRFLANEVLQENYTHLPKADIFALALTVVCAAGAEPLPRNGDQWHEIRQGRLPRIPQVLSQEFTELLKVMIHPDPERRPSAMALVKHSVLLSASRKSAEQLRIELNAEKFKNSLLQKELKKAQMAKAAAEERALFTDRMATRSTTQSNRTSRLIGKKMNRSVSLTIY
T6 sequence (Q96SW2 whole entry): as the sequence (Q96SW2 whole entry) above
T6 sequence (Q16531 whole entry partner): as the sequence (Q16531 whole entry partner) above
How it was run: as §1

Row | Compound | GSPT1 substrate protein remaining % [1] | IKZF3 substrate protein remaining % [2] | CK1α substrate protein remaining % [3] | IC50 [4] [µM] | IKZF2 substrate protein remaining % [5] | IKZF1 substrate protein remaining % [6] | WEE1 substrate protein remaining % [7]
1 | Cc1ccc(Sc2ccccc2N2CCN(Cc3ccc4c(c3)CN(N3CCC(=O)NC3=O)C4=O)CC2)c(C)c1 [GT-04867, 1-(5-((4-(2-((2,4-dimethylphenyl)thio)phenyl)piperazin-1-yl)methyl)-1-oxoisoindolin-2-yl)dihydropyrimidine-2,4(1H,3H)-dione] | A (0% ≤ substrate protein remaining % ≤80%) | B (80%< substrate protein remaining % ≤100%) | B (80%< substrate protein remaining % ≤100%) | 0.5 to 1 | B (80%< substrate protein remaining % ≤100%) | A (0% ≤ substrate protein remaining % ≤80%) | B (80%< substrate protein remaining % ≤100%)
2 | O=C1CCN(N2Cc3cc(CN4CC=C(c5ccoc5)CC4)ccc3C2=O)C(=O)N1 [GT-04875, 1-(5-((4-(furan-3-yl)-3,6-dihydropyridin-1(2H)-yl)methyl)-1-oxoisoindolin-2-yl)dihydropyrimidine-2,4(1H,3H)-dione] | A (0% ≤ substrate protein remaining % ≤80%) | B (80%< substrate protein remaining % ≤100%) | B (80%< substrate protein remaining % ≤100%) | 0.3 to 0.5 | B (80%< substrate protein remaining % ≤100%) | B (80%< substrate protein remaining % ≤100%) | A (0% ≤ substrate protein remaining % ≤80%)
3 | N#Cc1ccc(N2CCN(Cc3ccc(COc4cccc5c4CN(N4CCC(=O)NC4=O)C5=O)cc3)CC2)c(F)c1 [GT-06132, 4-(4-(4-(((2-(2,4-dioxotetrahydropyrimidin-1(2H)-yl)-1-oxoisoindolin-4-yl)oxy)methyl)benzyl)piperazin-1-yl)-3-fluorobenzonitrile] | – | – | – | 0.1 to 0.3 | – | – | –
4 | O=C1CCN(N2C(=O)c3ccc(CN4CCN(c5nc(Cl)nc6c5SCC6)CC4)cc3C2=O)C(=O)N1 [GT-08448, 5-((4-(2-chloro-6,7-dihydrothieno[3,2-d]pyrimidin-4-yl)piperazin-1-yl)methyl)-2-(2,4-dioxotetrahydropyrimidin-1(2H)-yl)isoindoline-1,3-dione] | A (0% ≤ substrate protein remaining % ≤80%) | B (80%< substrate protein remaining % ≤100%) | B (80%< substrate protein remaining % ≤100%) | – | B (80%< substrate protein remaining % ≤100%) | B (80%< substrate protein remaining % ≤100%) | B (80%< substrate protein remaining % ≤100%)
5 | O=C1CCN(N2C(=O)c3ccc(CN4CCN(c5nc(N6CCOCC6)nc6c5SCC6)CC4)cc3C2=O)C(=O)N1 [GT-08450, 2-(2,4-dioxotetrahydropyrimidin-1(2H)-yl)-5-((4-(2-morpholino-6,7-dihydrothieno[3,2-d]pyrimidin-4-yl)piperazin-1-yl)methyl)isoindoline-1,3-dione] | A (0% ≤ substrate protein remaining % ≤80%) | B (80%< substrate protein remaining % ≤100%) | B (80%< substrate protein remaining % ≤100%) | – | B (80%< substrate protein remaining % ≤100%) | B (80%< substrate protein remaining % ≤100%) | B (80%< substrate protein remaining % ≤100%)
6 | O=C1CCN(N2C(=O)c3ccc(CN4CCN(c5nc6c(c(N7CCOCC7)n5)SCC6)CC4)cc3C2=O)C(=O)N1 [GT-08451, 2-(2,4-dioxotetrahydropyrimidin-1(2H)-yl)-5-((4-(4-morpholino-6,7-dihydrothieno[3,2-d]pyrimidin-2-yl)piperazin-1-yl)methyl)isoindoline-1,3-dione] | B (80%< substrate protein remaining % ≤100%) | A (0% ≤ substrate protein remaining % ≤80%) | A (0% ≤ substrate protein remaining % ≤80%) | – | B (80%< substrate protein remaining % ≤100%) | B (80%< substrate protein remaining % ≤100%) | B (80%< substrate protein remaining % ≤100%)
7 | O=C1CCN(N2C(=O)c3ccc(CN4CCN(c5ncnc6ccsc56)CC4)cc3C2=O)C(=O)N1 [GT-08452, 2-(2,4-dioxotetrahydropyrimidin-1(2H)-yl)-5-((4-(thieno[3,2-d]pyrimidin-4-yl)piperazin-1-yl)methyl)isoindoline-1,3-dione] | B (80%< substrate protein remaining % ≤100%) | A (0% ≤ substrate protein remaining % ≤80%) | A (0% ≤ substrate protein remaining % ≤80%) | – | B (80%< substrate protein remaining % ≤100%) | A (0% ≤ substrate protein remaining % ≤80%) | A (0% ≤ substrate protein remaining % ≤80%)
8 | O=C1CCN(N2C(=O)c3ccc(CN4CCN(c5nc(Cl)nc6ccsc56)CC4)cc3C2=O)C(=O)N1 [GT-08453, 5-((4-(2-chlorothieno[3,2-d]pyrimidin-4-yl)piperazin-1-yl)methyl)-2-(2,4-dioxotetrahydropyrimidin-1(2H)-yl)isoindoline-1,3-dione] | A (0% ≤ substrate protein remaining % ≤80%) | A (0% ≤ substrate protein remaining % ≤80%) | A (0% ≤ substrate protein remaining % ≤80%) | – | B (80%< substrate protein remaining % ≤100%) | A (0% ≤ substrate protein remaining % ≤80%) | B (80%< substrate protein remaining % ≤100%)
9 | O=C1CCN(N2C(=O)c3ccc(CN4CCN(c5nc(N6CCOCC6)nc6ccsc56)CC4)cc3C2=O)C(=O)N1 [GT-08455, 2-(2,4-dioxotetrahydropyrimidin-1(2H)-yl)-5-((4-(2-morpholinothieno[3,2-d]pyrimidin-4-yl)piperazin-1-yl)methyl)isoindoline-1,3-dione] | A (0% ≤ substrate protein remaining % ≤80%) | A (0% ≤ substrate protein remaining % ≤80%) | A (0% ≤ substrate protein remaining % ≤80%) | – | B (80%< substrate protein remaining % ≤100%) | B (80%< substrate protein remaining % ≤100%) | B (80%< substrate protein remaining % ≤100%)
10 | Cc1nc(C2=CCN(Cc3ccc4c(c3)C(=O)N(N3CCC(=O)NC3=O)C4=O)CC2)c2c(-c3ccccc3)csc2n1 [GT-08484, 2-(2,4-dioxotetrahydropyrimidin-1(2H)-yl)-5-((4-(2-methyl-5-phenylthieno[2,3-d]pyrimidin-4-yl)-3,6-dihydropyridin-1(2H)-yl)methyl)isoindoline-1,3-dione] | A (0% ≤ substrate protein remaining % ≤80%) | A (0% ≤ substrate protein remaining % ≤80%) | A (0% ≤ substrate protein remaining % ≤80%) | – | A (0% ≤ substrate protein remaining % ≤80%) | A (0% ≤ substrate protein remaining % ≤80%) | A (0% ≤ substrate protein remaining % ≤80%)
11 | O=C1CCN(N2Cc3cc(CN4CCN(c5nc(N6CCNCC6)c6sccc6n5)CC4)ccc3C2=O)C(=O)N1 [GT-08949, 1-(1-oxo-5-((4-(4-(piperazin-1-yl)thieno[3,2-d]pyrimidin-2-yl)piperazin-1-yl)methyl)isoindolin-2-yl)dihydropyrimidine-2,4(1H,3H)-dione] | A (0% ≤ substrate protein remaining % ≤80%) | B (80%< substrate protein remaining % ≤100%) | B (80%< substrate protein remaining % ≤100%) | – | B (80%< substrate protein remaining % ≤100%) | B (80%< substrate protein remaining % ≤100%) | B (80%< substrate protein remaining % ≤100%)
